# Source: ChEMBL document CHEMBL1128115, “Synthesis and pharmacological activity of combretastatin analogues. Naphthylcombretastatins and related compounds” (Bioorg Med Chem Lett, 1995)
# Key:
# Assay type in all cases: functional, cell-based
# HT-29 = test: Compound was tested for inhibition of cell growth of HT-29 cells; settings: Homo sapiens
# [1] = Compound was tested for inhibition of cell growth of MEL-28 cells; settings: Homo sapiens, SK-MEL-28
# A549 = test: Compound was tested for inhibition of cell growth of A-549 cells; settings: Homo sapiens
# P388 = test: Compound was tested for inhibition of cell growth of P-388 cells; settings: Mus musculus
# L1210 = test: Compound was tested for inhibition of cell growth of L1210 leukemia cells; settings: Mus musculus
IC50 (HT-29),IC50 (A549),IC50 (P388),IC50 (L1210),SMILES,IC50 [1]
6.3 µM,6.3 µM,6.3 µM,,COc1cc(CCc2ccc3c(c2)OCO3)cc(OC)c1OC,6.3 µM
,,,20 µM,c1ccc2cc(C3SCCCS3)ccc2c1,
22.9 µM,22.9 µM,22.9 µM,,COc1ccc(C2(Cc3cc(OC)c(OC)c(OC)c3)SCCCS2)cc1OC,> 22.9 µM
29.7 µM,14.8 µM,14.8 µM,,COc1cc(CC(=O)c2ccc3ccccc3c2)cc(OC)c1OC,14.8 µM
5.9 µM,5.9 µM,5.9 µM,,COc1cc(CC2(c3ccc4c(c3)OCO4)SCCCS2)cc(OC)c1OC,4.7 µM
15 µM,15 µM,15 µM,,COc1ccc(CCc2cc(OC)c(OC)c(OC)c2)cc1OC,15 µM
> 28.9 µM,> 28.9 µM,> 28.9 µM,,COc1ccc(C(=O)Cc2cc(OC)c(OC)c(OC)c2)cc1OC,> 28.9 µM

# Further lines, the compound ahead of its results:
SMILES,IC50 (HT-29),IC50 (A549),IC50 (P388),IC50 (L1210),IC50 [1]
COc1cc(CC2(c3ccc4ccccc4c3)SCCCS2)cc(OC)c1OC,5.8 µM,5.8 µM,5.8 µM,,11.7 µM
COc1cc(C(=O)Cc2cc(OC)c(OC)c(OC)c2)ccc1O,> 30 µM,> 30 µM,30 µM,,> 30 µM
COc1ccc(C(O)Cc2cc(OC)c(OC)c(OC)c2)cc1OC (centres undefined),> 28.7 µM,> 28.7 µM,28.7 µM,,> 28.7 µM
Oc1ccc(CCc2ccc3c(c2)OCO3)cc1,> 41.2 µM,> 41.2 µM,41.2 µM,,> 41.2 µM
COc1cc(CCc2ccc3ccccc3c2)cc(OC)c1OC,0.3 µM,0.3 µM,0.3 µM,,0.3 µM
COc1cc([C@@H]2c3cc4c(cc3[C@H](O)[C@H]3COC(=O)[C@H]23)OCO4)cc(OC)c1OC [PODOFILOX],0.05 µM,0.05 µM,0.05 µM,,0.06 µM
